Assay results reported in patent publication US9693997B2, “Antiviral compounds” (priority 2013, dated 2017).
Structures can show the parent of a compound that is named as a salt.

Tests used:
[1] = tested on: Pseudotyped HCV GT1b particles (HCVpp), entry into Huh7-high CD81 cells; assay: microbe, parasite or virus in culture; assay type: cell-based, HCV GT1b Con1 strain; conditions: Hepatitis C virus, GT1B, 72 h, read-out: HCVpp GT-1b (EC50, μM)
[2] = tested on: pseudotyped VSV G particles (VSVpp) in Huh7-high CD81 cells; assay: microbe, parasite or virus in culture; assay type: cell-based, vesicular stomatitis virus; conditions: Vesicular stomatitis virus, 72 h, read-out: VSVpp (EC50, μM)

SMILES | EC50 [1] | EC50 [2]
CS(=O)(=O)Nc1ccc(-c2c(Cl)cc(Nc3n[nH]c(N)n3)cc2Cl)c(F)c1 [Compound 28, N-[4′-(5-Amino-1H-[1,2,4]triazol-3-ylamino)-2′,6′-dichloro-2-fluoro-biphenyl-4-yl]-methanesulfonamide] | 0.083 µM | 4.02 µM
Nc1nc(Nc2cc(Cl)c(-c3ccc(S(=O)(=O)C4CCCNC4)cc3)c(C(F)(F)F)c2)n[nH]1 (centres unmarked) [Compound 29, N*3*-[2-Chloro-4′-(piperidine-3-sulfonyl)-6-trifluoromethyl-biphenyl-4-yl]-1H-[1,2,4]triazole-3,5-diamine; hydrochloride] | 0.09 µM | 3.53 µM
CS(=O)(=O)c1ccc(-c2c(F)cc(Nc3n[nH]c(N)n3)cc2Cl)cc1 [Compound 30, N*3*-(2-Chloro-6-fluoro-4′-methanesulfonyl-biphenyl-4-yl)-1H-[1,2,4]triazole-3,5-diamine] | 0.107 µM | 1.53 µM
Nc1nc(Nc2cc(Cl)c(-c3ccc(S(=O)(=O)C[C@@H]4CCCN4)cc3)c(C(F)(F)F)c2)n[nH]1 [Compound 35, N*3*-[2-Chloro-4′-((S)-1-pyrrolidin-2-ylmethanesulfonyl)-6-trifluoromethyl-biphenyl-4-yl]-1H-[1,2,4]triazole-3,5-diamine; hydrochloride] | 0.127 µM | 4.79 µM
Nc1nc(Nc2cc(Cl)c(-c3ccc(S(=O)(=O)N4CCOCC4)cc3)c(C(F)(F)F)c2)n[nH]1 [Compound 36, N*3*-[2-Chloro-4′-(morpholine-4-sulfonyl)-6-trifluoromethyl-biphenyl-4-yl]-1H-[1,2,4]triazole-3,5-diamine] | 0.096 µM | 14.2 µM
Nc1nc(Nc2cc(Cl)c(-c3ccc(OCC4CNC4)cc3)c(C(F)(F)F)c2)n[nH]1 [Compound 37, N*3*-[4′-(Azetidin-3-ylmethoxy)-2-chloro-6-trifluoromethyl-biphenyl-4-yl]-1H-[1,2,4]triazole-3,5-diamine; hydrochloride] | 0.107 µM | > 10 µM
CS(=O)(=O)NCCc1ccc(-c2c(Cl)cc(Nc3n[nH]c(N)n3)cc2C(F)(F)F)cc1 [Compound 38, N-{2-[4′-(5-Amino-1H-[1,2,4]triazol-3-ylamino)-2′-chloro-6′-trifluoromethyl-biphenyl-4-yl]-ethyl}-methanesulfonamide] | 0.087 µM | 7.01 µM
Nc1nc(Nc2cc(Cl)c(-c3ccc(S(=O)(=O)CC4CCNCC4)cc3)c(C(F)(F)F)c2)n[nH]1 [Compound 40, N*3*-[2-Chloro-4′-(piperidin-4-ylmethanesulfonyl)-6-trifluoromethyl-biphenyl-4-yl]-1H-[1,2,4]triazole-3,5-diamine; hydrochloride] | 0.073 µM | 31.7 µM
Nc1nc(Nc2cc(Cl)c(-c3cccc(OC4CCNCC4)c3)c(C(F)(F)F)c2)n[nH]1 [Compound 41, N*3*-[2-Chloro-3′-(piperidin-4-yloxy)-6-trifluoromethyl-biphenyl-4-yl]-1H-[1,2,4]triazole-3,5-diamine; hydrochloride] | 0.166 µM | > 10 µM
CS(=O)(=O)n1ccc2cc(-c3c(Cl)cc(Nc4n[nH]c(N)n4)cc3Cl)ccc21 [Compound 42, N*3*-[3,5-Dichloro-4-(1-methanesulfonyl-1H-indol-5-yl)-phenyl]-1H-[1,2,4]triazole-3,5-diamine] | 0.212 µM | 2.27 µM
Nc1nc(Nc2cc(Cl)c(-c3ccc(N4CCCC4=O)cc3)c(Cl)c2)n[nH]1 [Compound 43, 1-[4′-(5-Amino-1H-[1,2,4]triazol-3-ylamino)-2′,6′-dichloro-biphenyl-4-yl]-pyrrolidin-2-one] | 0.169 µM | 15.4 µM
CS(=O)(=O)N1CCOc2ccc(-c3c(Cl)cc(Nc4n[nH]c(N)n4)cc3C(F)(F)F)cc21 [Compound 44, N*3*-[3-Chloro-4-(4-methanesulfonyl-3,4-dihydro-2H-benzo[1,4]oxazin-6-yl)-5-trifluoromethyl-phenyl]-1H-[1,2,4]triazole-3,5-diamine] | 0.236 µM | 4.92 µM
Nc1nc(Nc2cc(Cl)c(-c3ccc(S(=O)(=O)N4CCS(=O)(=O)CC4)cc3)c(C(F)(F)F)c2)n[nH]1 [Compound 45, N*3*-[2-Chloro-4′-(1,1-dioxo-1lambda*6*-thiomorpholine-4-sulfonyl)-6-trifluoromethyl-biphenyl-4-yl]-1H-[1,2,4]triazole-3,5-diamine] | 0.101 µM | > 10 µM
CS(=O)(=O)Nc1ccc(-c2c(Cl)cc(Nc3n[nH]c(N)n3)cc2Cl)cc1F [Compound 46, N-[4′-(5-Amino-1H-[1,2,4]triazol-3-ylamino)-2′,6′-dichloro-3-fluoro-biphenyl-4-yl]-methanesulfonamide] | 0.414 µM | > 10 µM
Nc1nc(Nc2cc(Cl)c(-c3ccc4c(c3)NC(=O)CO4)c(C(F)(F)F)c2)n[nH]1 [Compound 47, 6-[4-(5-Amino-1H-[1,2,4]triazol-3-ylamino)-2-chloro-6-trifluoromethyl-phenyl]-4H-benzo[1,4]oxazin-3-one] | 0.544 µM | 0.82 µM
NCCCCOc1ccc(-c2c(Cl)cc(Nc3n[nH]c(N)n3)cc2Cl)cc1 [Compound 49, N*3*-[4′-(4-Amino-butoxy)-2,6-dichloro-biphenyl-4-yl]-1H-[1,2,4]triazole-3,5-diamine; trifluoro-acetate] | 0.455 µM | > 10 µM
Nc1ccc(-c2c(Cl)cc(Nc3n[nH]c(N)n3)cc2Cl)cc1 [Compound 50, N*3*-(4′-Amino-2,6-dichloro-biphenyl-4-yl)-1H-[1,2,4]triazole-3,5-diamine] | 0.689 µM | > 10 µM
Nc1nc(Nc2cc(Cl)c(-c3ccc(S(=O)(=O)N4CCC[C@H]4C(=O)O)cc3)c(C(F)(F)F)c2)n[nH]1 [Compound 51, (S)-1-[4′-(5-Amino-1H-[1,2,4]triazol-3-ylamino)-2′-chloro-6′-trifluoromethyl-biphenyl-4-sulfonyl]-pyrrolidine-2-carboxylic acid] | 0.678 µM | > 10 µM
CC1(C)CS(=O)(=O)c2cc(-c3c(Cl)cc(Nc4n[nH]c(N)n4)cc3Cl)ccc2O1 [Compound 52, N*3*-[3,5-Dichloro-4-(2,2-dimethyl-4,4-dioxo-3,4-dihydro-2H-4lambda*6*-benzo[1,4]oxathiin-6-yl)-phenyl]-1H-[1,2,4]triazole-3,5-diamine] | 0.64 µM | > 10 µM
CCCCC(=O)Nc1ccc(-c2ccc(Nc3n[nH]c(N)n3)cc2)cc1 [Compound 53, Pentanoic acid [4′-(5-amino-1H-[1,2,4]triazol-3-ylamino)-biphenyl-4-yl]-amide] | 5.61 µM | 4.38 µM
CC(C)(C)CCN1CCCC(CS(=O)(=O)c2ccc(-c3c(Cl)cc(Nc4n[nH]c(N)n4)cc3C(F)(F)F)cc2)C1 (centres unmarked) [Compound 56, N*3*-{2-Chloro-4′-[1-(3,3-dimethyl-butyl)-piperidin-3-ylmethanesulfonyl]-6-trifluoromethyl-biphenyl-4-yl}-1H-[1,2,4]triazole-3,5-diamine; hydrochloride] | 0.046 µM | 3.74 µM
CC(C)(C)CCN1CCC(CS(=O)(=O)c2ccc(-c3c(Cl)cc(Nc4n[nH]c(N)n4)cc3C(F)(F)F)cc2)CC1 [Compound 57, N*3*-{2-Chloro-4′-[1-(3,3-dimethyl-butyl)-piperidin-4-ylmethanesulfonyl]-6-trifluoromethyl-biphenyl-4-yl}-1H-[1,2,4]triazole-3,5-diamine; hydrochloride] | 0.049 µM | 2.45 µM
